Drawing on patent US11999716B2, “WDR5 inhibitors and modulators” (priority 2018, dated 2024), this text covers GI50 for 26 compounds.

The assay concerns MV4:11 human cancer cell lines. Briefly: Cellular viability / anti-proliferative activity, CellTiter-Glo, 5 day protocol. The class given is cell-based. The note with it: Homo sapiens, MV4-11, 120 h, MV4:11 cells; 5 day incubation; CellTiter-Glo; mean of minimum two replicates; read-out: GI50 on cellular proliferation of MV4:11 human cancer cell lines. In a few lines:
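Compounds were tested over 22 two-fold dilutions starting at 30 μM in 0.3% DMSO, with 200 cells per well (7200 cells/mL). Viability was measured by CellTiter-Glo luminescence at day 5.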

For the compound `COc1cc(CN2CCc3c(cc(Cn4ccn(C)c4=N)cc3-c3cc(C)nc(C)c3)C2=O)cc(OC)c1` [Example 154, 2-(3,5-Dimethoxybenzyl)-5-(2,6-dimethylpyridin-4-yl)-7-((2-imino-3-methyl-2,3-dihydro-1H-imidazol-1-yl)methyl)-3,4-dihydroisoquinolin-1(2H)-one], the GI50 turned out to be 559 nM.

Consider `COc1cc(CN2CCc3cc(F)c(Cn4ccn(C)c4=N)cc3C2=O)cc(OC)c1` [Example 25, 2-(3,5-Dimethoxybenzyl)-6-fluoro-7-((2-imino-3-methyl-2,3-dihydro-1H-imidazol-1-yl)methyl)-3,4-dihydroisoquinolin-1(2H)-one], for which the GI50 was more than 938 nM. As for `COc1ccnc(CN2CCc3c(cc(Cn4ccn(C)c4=N)cc3C3CC3)C2=O)c1` [Example 54, 5-Cyclopropyl-7-((2-imino-3-methyl-2,3-dihydro-1H-imidazol-1-yl)methyl)-2-((4-methoxypyridin-2-yl)methyl)-3,4-dihydroisoquinolin-1(2H)-one], the figure is 880 nM; as for `COc1cc(CN2CCc3c(cc(Cn4ccn(C5CC5)c4=N)cc3-c3ccc(F)cc3C)C2=O)cc(OC)c1` [Example 38, 7-((3-Cyclopropyl-2-imino-2,3-dihydro-1H-imidazol-1-yl)methyl)-2-(3,5-dimethoxybenzyl)-5-(4-fluoro-2-methylphenyl)-3,4-dihydroisoquinolin-1(2H)-one], 95 nM; as for `COc1ccnc(CN2CCc3c(cc(Cn4ccccc4=N)cc3-c3cn(C)nc3C)C2=O)c1` [Example 117, 5-(1,3-Dimethyl-1H-pyrazol-4-yl)-7-((2-iminopyridin-1(2H)-yl)methyl)-2-((4-methoxypyridin-2-yl)methyl)-3,4-dihydroisoquinolin-1(2H)-one], more than 938 nM. Turning to `COc1cc(CN2CCc3c(cc(CN4CCSC4=N)cc3-c3ccc(F)cc3C)C2=O)cc(OC)c1` [Example 100, 2-(3,5-Dimethoxybenzyl)-5-(4-fluoro-2-methylphenyl)-7-((2-iminothiazolidin-3-yl)methyl)-3,4-dihydroisoquinolin-1(2H)-one], the GI50 stood at 269 nM. With `CCn1cc(-c2cc(Cn3ccn(C)c3=N)cc3c2CCN(Cc2cn(C)nc2C)C3=O)c(C(F)(F)F)n1` [Example 77, 2-((1,3-Dimethyl-1H-pyrazol-4-yl)methyl)-5-(1-ethyl-3-(trifluoromethyl)-1H-pyrazol-4-yl)-7-((2-imino-3-methyl-2,3-dihydro-1H-imidazol-1-yl)methyl)-3,4-dihydroisoquinolin-1(2H)-one], the GI50 is more than 938 nM. As for `Cc1nccn1Cc1cc2c(c(-c3cn(C)nc3C(F)(F)F)c1)CCN(Cc1cccc(Br)c1)C2=O` [Example 207, 2-(3-Bromobenzyl)-7-((2-methyl-1H-imidazol-1-yl)methyl)-5-(1-methyl-3-(trifluoromethyl)-1H-pyrazol-4-yl)-3,4-dihydroisoquinolin-1(2H)-one], the figure is 75 nM. In the case of `COc1cc(CN2CCc3c(cc(Cn4cnn(C)c4=N)cc3-c3ncc(F)cc3C)C2=O)cc(OC)c1` [Example 124, 2-(3,5-Dimethoxybenzyl)-5-(5-fluoro-3-methylpyridin-2-yl)-7-((5-imino-1-methyl-1,5-dihydro-4H-1,2,4-triazol-4-yl)methyl)-3,4-dihydroisoquinolin-1(2H)-one], the GI50 worked out at 935 nM.

In the case of `Cc1nccn1Cc1cc2c(c(-c3cn(C)nc3C(F)(F)F)c1)CCN(Cc1cc(Br)ccn1)C2=O` [Example 205, 2-((4-Bromopyridin-2-yl)methyl)-7-((2-methyl-1H-imidazol-1-yl)methyl)-5-(1-methyl-3-(trifluoromethyl)-1H-pyrazol-4-yl)-3,4-dihydroisoquinolin-1(2H)-one], the GI50 was less than 50 nM.

Turning to `CCn1cc(-c2cc(Cn3ccnc3C#N)cc3c2CCN([C@@H](C)c2cc(OC)ccn2)C3=O)c(C(F)(F)F)n1` [Example 179], the GI50 amounted to 9640 nM. On to `COc1ccnc(CN2CCc3c(cc(Cn4ccn(C5CC5)c4=N)cc3-c3cn(C)nc3C(F)(F)F)C2=O)c1` [Example 45, 7-((3-Cyclopropyl-2-imino-2,3-dihydro-1H-imidazol-1-yl)methyl)-2-((4-methoxypyridin-2-yl)methyl)-5-(1-methyl-3-(trifluoromethyl)-1H-pyrazol-4-yl)-3,4-dihydroisoquinolin-1(2H)-one], for which the GI50 is 113 nM. The same measure for `COc1ccnc(CN2CCc3c(cc(CN4CCN(C5CC5)C4=N)cc3-c3cn(C)nc3C(F)(F)F)C2=O)c1` [Example 44, 7-((3-Cyclopropyl-2-iminoimidazolidin-1-yl)methyl)-2-((4-methoxypyridin-2-yl)methyl)-5-(1-methyl-3-(trifluoromethyl)-1H-pyrazol-4-yl)-3,4-dihydroisoquinolin-1(2H)-one]: less than 50 nM; for `CCn1cc(-c2cc(Cn3ccnc3C)cc3c2CCN([C@@H](C)c2cncc(OC)c2)C3=O)c(C(F)(F)F)n1` [Example 243, (S)-5-(1-Ethyl-3-(trifluoromethyl)-1H-pyrazol-4-yl)-2-(1-(5-methoxypyridin-3-yl)ethyl)-7-((2-methyl-1H-imidazol-1-yl)methyl)-3,4-dihydroisoquinolin-1(2H)-one]: less than 50 nM.

Regarding `CCn1cc(-c2cc(CN3CCSC3=N)cc3c2CCN([C@@H](C)c2cc(OC)ccn2)C3=O)c(C(F)(F)F)n1` [Example 151, (S)-5-(1-Ethyl-3-(trifluoromethyl)-1H-pyrazol-4-yl)-7-((2-iminothiazolidin-3-yl)methyl)-2-(1-(4-methoxypyridin-2-yl)ethyl)-3,4-dihydroisoquinolin-1(2H)-one], the GI50 was less than 50 nM. The same measure for `CCn1cc(-c2cc(Cn3ccnc3C)cc3c2CCN([C@@H](C)c2cc(OC)ccn2)C3=O)c(C(F)(F)F)n1` [Example 156, (S)-5-(1-Ethyl-3-(trifluoromethyl)-1H-pyrazol-4-yl)-2-(1-(4-methoxypyridin-2-yl)ethyl)-7-((2-methyl-1H-imidazol-1-yl)methyl)-3,4-dihydroisoquinolin-1(2H)-one]: less than 50 nM. The same measure for `Cc1nnc(CN2CCc3c(cc(Cn4ccnc4C)cc3-c3cn(C)nc3C(F)(F)F)C2=O)s1` [Example 174, 2-((5-Methyl-1,3,4-thiadiazol-2-yl)methyl)-7-((2-methyl-1H-imidazol-1-yl)methyl)-5-(1-methyl-3-(trifluoromethyl)-1H-pyrazol-4-yl)-3,4-dihydroisoquinolin-1(2H)-one]: 329 nM; for `CCn1cc(-c2cc(Cc3nccn3C)cc3c2CCN([C@@H](C)c2cc(OC)ccn2)C3=O)c(C(F)(F)F)n1` [Example 254, (S)-5-(1-Ethyl-3-(trifluoromethyl)-1H-pyrazol-4-yl)-2-(1-(4-methoxypyridin-2-yl)ethyl)-7-((1-methyl-1H-imidazol-2-yl)methyl)-3,4-dihydroisoquinolin-1(2H)-one]: 1340 nM.

On to `Cc1cc2c(c(CN3CCc4c(cc(Cn5ccnc5C)cc4-c4cn(C)nc4C(F)(F)F)C3=O)c1)OCC2` [Example 218, 7-((2-Methyl-1H-imidazol-1-yl)methyl)-2-((5-methyl-2,3-dihydrobenzofuran-7-yl)methyl)-5-(1-methyl-3-(trifluoromethyl)-1H-pyrazol-4-yl)-3,4-dihydroisoquinolin-1(2H)-one], for which the GI50 was less than 50 nM. With `COc1cc(CN2CCc3c(cc(Cn4ccn(C)c4=N)cc3-c3nc(C)cn3C)C2=O)cc(OC)c1` [Example 153, 2-(3,5-Dimethoxybenzyl)-5-(1,4-dimethyl-1H-imidazol-2-yl)-7-((2-imino-3-methyl-2,3-dihydro-1H-imidazol-1-yl)methyl)-3,4-dihydroisoquinolin-1(2H)-one], the GI50 is more than 938 nM. Consider `COc1cc(CN2CCc3c(cc(CN4CCCC4=N)cc3-c3ccc(F)cc3C)C2=O)cc(OC)c1` [Example 113, 2-(3,5-Dimethoxybenzyl)-5-(4-fluoro-2-methylphenyl)-7-((2-iminopyrrolidin-1-yl)methyl)-3,4-dihydroisoquinolin-1(2H)-one], for which the GI50 worked out at 462 nM. In the case of `Cc1cc(CN2CCc3c(cc(Cn4ccnc4C)cc3-c3cn(C)nc3C(F)(F)F)C2=O)ccn1` [Example 208, 7-((2-Methyl-1H-imidazol-1-yl)methyl)-5-(1-methyl-3-(trifluoromethyl)-1H-pyrazol-4-yl)-2-((2-methylpyridin-4-yl)methyl)-3,4-dihydroisoquinolin-1(2H)-one], the GI50 turned out to be 251 nM. The same measure for `CCn1cc(-c2cc(Cc3ncc[nH]3)cc3c2CCN([C@@H](C)c2cc(OC)ccn2)C3=O)c(C(F)(F)F)n1` [Example 230, (S)-7-((1H-Imidazol-2-yl)methyl)-5-(1-ethyl-3-(trifluoromethyl)-1H-pyrazol-4-yl)-2-(1-(4-methoxypyridin-2-yl)ethyl)-3,4-dihydroisoquinolin-1(2H)-one]: less than 50 nM. The same measure for `Cc1cc(CN2CCc3c(cc(Cn4ccnc4C)cc3-c3cn(C)nc3C(F)(F)F)C2=O)cnc1C` [Example 241, 2-((5,6-Dimethylpyridin-3-yl)methyl)-7-((2-methyl-1H-imidazol-1-yl)methyl)-5-(1-methyl-3-(trifluoromethyl)-1H-pyrazol-4-yl)-3,4-dihydroisoquinolin-1(2H)-one]: less than 50 nM. The same measure for `CCn1cc(-c2cc(Cn3ccoc3=N)cc3c2CCN(Cc2cc(OC)ccn2)C3=O)c(C)n1` [Example 90, 5-(1-Ethyl-3-methyl-1H-pyrazol-4-yl)-7-((2-iminooxazol-3(2H)-yl)methyl)-2-((4-methoxypyridin-2-yl)methyl)-3,4-dihydroisoquinolin-1(2H)-one]: 209 nM; for `CCn1cc(-c2cc(Cn3ccnc3C)cc3c2CCN(Cc2cn(C)nc2C)C3=O)c(C(F)(F)F)n1` [Example 20, 2-((1,3-Dimethyl-1H-pyrazol-4-yl)methyl)-5-(1-ethyl-3-(trifluoromethyl)-1H-pyrazol-4-yl)-7-((2-methyl-1H-imidazol-1-yl)methyl)-3,4-dihydroisoquinolin-1(2H)-one]: 508 nM.
